Reference: article PMC7399337, “Biological Properties and Absolute Configuration of Flavanones From Calceolaria thyrsiflora Graham” (Frontiers in Pharmacology, 2020)

Tests used:
[1] = tested on: MEF primary mouse embryonic fibroblast; experiment: In vitro cytotoxic activity, CyQuant cell viability, 72 h; assay type: cell-based; details: MEF (non-cancerous cells); 72 h
Procedure: The used cell lines include MDA-MB-231 human breast adenocarcinoma cells, B16-F10 mouse metastatic melanoma cells and MEF primary mouse embryonic fibroblast. Cells were maintained in a DMEM high glucose medium (Mediatech, Manassas, VA, USA) supplemented with 10% (MDA-MB-231 and B16-F10) or 15% (MEF) heat-inactivated fetal bovine serum (HyClone Laboratories, South Logan, USA), 100 IU ml^-1 penicillin and 100 μg ml^-1 streptomycin while maintained at 37°C in a 5% CO2 humidified atmosphere. Cell viability was measured using a CyQuant® Direct Cell Proliferation Assay Kit (Life Technologies, Grand Island, NY, USA) following the manufacturer’s instruction. Briefly, 5,000 cells per well were seeded onto a flat-bottom 96-well plate in 200 μL final volume. Six hours after seeding, the culture medium was replaced by the medium containing the tested compounds at 0.01 to 100 µM concentrations in DMSO (0.1% final concentration) during 72 h. Untreated cells (medium containing only 0.1% DMSO) were used as controls. At the end of the incubation, 100 μL of culture medium was removed from each well and replaced by detection reagent solution provided by the kit (which is a 1:5 mixture of the reagent CyQUANT®, direct nucleic acid stain and the reagent labeled as CyQUANT® direct background suppressor I). Cells were incubated for 1 h and fluorescence emission was measured at 535 nm with excitation at 480 nm in a microplate reader (Infinite 200 PRO, Tecan, Grödig, Austria). At least four independent experiments were performed for each concentration. The results from each experiment were transformed into percentage of controls and the LC50 values were graphically obtained from the dose-response curves. The LC50 value was obtained adjusting the dose-response curve to sigmoidal curves (variable slope) using the GraphPad Prisma 6.0 software ([GraphPad-Software, 2015]).

5-hLOX = target: T1, 5-hLOX (Homo sapiens, UniProt P09917); experiment: In vitro 5-hLOX enzyme assay (H2DCFDA fluorescence); assay type: biochemical; details: kinetic assays, inhibitor 0–1 μM, substrate 0.2–5 μM
T1 construct: purchased Cayman Chemicals Inc. (Ann Arbor, MI, USA)
T1 sequence (P09917 1-674): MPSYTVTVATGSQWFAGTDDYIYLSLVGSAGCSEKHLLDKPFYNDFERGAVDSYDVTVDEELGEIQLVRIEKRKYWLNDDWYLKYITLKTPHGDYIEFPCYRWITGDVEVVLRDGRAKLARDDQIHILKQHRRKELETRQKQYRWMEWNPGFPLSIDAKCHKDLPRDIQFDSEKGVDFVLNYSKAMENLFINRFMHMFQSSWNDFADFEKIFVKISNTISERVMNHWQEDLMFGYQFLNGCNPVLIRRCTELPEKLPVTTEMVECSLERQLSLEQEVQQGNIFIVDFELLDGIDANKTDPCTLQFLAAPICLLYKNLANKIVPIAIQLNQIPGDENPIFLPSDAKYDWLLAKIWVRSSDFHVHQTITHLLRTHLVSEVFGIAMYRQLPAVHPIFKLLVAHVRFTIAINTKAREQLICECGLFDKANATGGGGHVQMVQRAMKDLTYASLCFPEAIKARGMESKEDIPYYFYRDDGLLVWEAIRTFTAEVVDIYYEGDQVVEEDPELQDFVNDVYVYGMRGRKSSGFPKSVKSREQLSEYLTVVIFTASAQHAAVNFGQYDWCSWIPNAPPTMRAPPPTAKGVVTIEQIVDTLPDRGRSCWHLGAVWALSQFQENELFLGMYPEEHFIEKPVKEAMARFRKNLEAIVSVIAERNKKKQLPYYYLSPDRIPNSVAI

COc1cc(O)c2c(c1)O[C@H](c1ccc(O)cc1)CC2=O [Compound 1, (-)-(2S)-5,4’-dihydroxy-7-methoxyflavanone]
LC50 ± SD [1]: no significant cytotoxic activity

COc1cc(O)c2c(c1)O[C@H](c1ccc(O)c(O)c1)CC2=O [Compound 2, (-)-(2S)-5,3’,4’-trihydroxy-7-methoxyflavanone]
Ki (5-hLOX): 50 nM
